# Test results from BindingDB's records for doi:10.1016/s0968-0896(01)00250-4 (Pfizer, 2002).
# Target: T1, Caspase-1 (Homo sapiens, UniProt P29466)
# T1 sequence (P29466 whole entry): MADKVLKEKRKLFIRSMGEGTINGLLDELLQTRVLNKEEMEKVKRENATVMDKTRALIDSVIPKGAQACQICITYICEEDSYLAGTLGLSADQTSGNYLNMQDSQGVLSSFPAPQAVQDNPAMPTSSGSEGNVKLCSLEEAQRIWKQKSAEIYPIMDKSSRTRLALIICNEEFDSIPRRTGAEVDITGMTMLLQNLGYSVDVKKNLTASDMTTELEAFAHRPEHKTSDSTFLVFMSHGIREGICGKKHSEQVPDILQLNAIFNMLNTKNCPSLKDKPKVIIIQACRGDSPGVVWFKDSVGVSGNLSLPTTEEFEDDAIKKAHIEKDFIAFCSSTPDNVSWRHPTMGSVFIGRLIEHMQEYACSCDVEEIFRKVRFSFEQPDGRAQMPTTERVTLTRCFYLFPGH
# Experiment: Caspase Inhibition Assay
# Details: pH 7; 37 °C
# Protocol: The substrate peptides terminating in AMC are processed by caspases with or without inhibitors, and the accumulation of AMC was assessed with a Cytofluor fluorescent plate reader at excitation and emission wavelengths of 380 and 460 nm. Compounds were tested, and full IC50 curves were run for all compounds expressing measurable inhibitory activity.
row,Ki [µM],SMILES
1,0.011,CC(=O)N[C@@H](Cc1ccc(O)cc1)C(=O)N[C@H](C(=O)N[C@@H](C)C(=O)N[C@@H](CC(=O)O)C(=O)CCCCCc1ccccc1)C(C)C [(3S)-3-[(2S)-2-[(2S)-2-[(2S)-2-acetamido-3-(4-hydroxyphenyl)propanamido]-3-methylbutanamido]propanamido]-4-oxo-9-phenylnonanoic acid]
2,24,O=C(O)C[C@H](NS(=O)(=O)c1ccccc1)C(=O)CSCCCc1ccccc1 [(3S)-3-benzenesulfonamido-4-oxo-5-[(3-phenylpropyl)sulfanyl]pentanoic acid]
3,24,O=C(O)C[C@H](NS(=O)(=O)c1ccccc1)C(=O)CCCCCc1ccccc1 [(3S)-3-benzenesulfonamido-4-oxo-9-phenylnonanoic acid]
4,9.4,O=C[C@H](CC(=O)O)NS(=O)(=O)c1ccccc1 [(3S)-3-benzenesulfonamido-4-oxobutanoic acid]
5,3.1,Cc1cccc(-c2ccccc2S(=O)(=O)N[C@H](C=O)CC(=O)O)c1 [(3S)-3-{[2-(3-methylphenyl)benzene]sulfonamido}-4-oxobutanoic acid]
6,7.2,Cc1ccc(-c2ccccc2S(=O)(=O)N[C@H](C=O)CC(=O)O)cc1 [(3S)-3-{[2-(4-methylphenyl)benzene]sulfonamido}-4-oxobutanoic acid]
7,6.9,O=C[C@H](CC(=O)O)NS(=O)(=O)c1ccccc1-c1cccc2ccccc12 [(3S)-3-{[2-(naphthalen-1-yl)benzene]sulfonamido}-4-oxobutanoic acid]
8,6.8,Cc1ccccc1-c1ccccc1S(=O)(=O)N[C@H](C=O)CC(=O)O [(S)-3-(2-Methyl-biphenyl-2-sulfonylamino)-4-oxo-butyric acid]
9,1.9,Cc1cccc(S(=O)(=O)N[C@H](C=O)CC(=O)O)c1-c1ccccc1 [(S)-3-(6-Methyl-biphenyl-2-sulfonylamino)-4-oxo-butyric acid]
10,25,O=C(O)C[C@H](NC(=O)OCc1ccccc1)C(=O)CSCCCc1ccccc1 [(S)-3-Benzyloxycarbonylamino-4-oxo-5-(3-phenyl-propyl-sulfanyl)-pentanoic acid]
11,119,O=C(O)C[C@H](NC(=O)OCc1ccccc1)C(=O)CCCCCc1ccccc1 [(S)-3-Benzyloxycarbonylamino-4-oxo-9-phenyl-nonanoic acid]
